Legend:
FCR1 (Rv3391) = molecular target: T1, FCR1 (Rv3391) (Mycobacterium tuberculosis, UniProt O50417)
T1 construct: gene acrA1

FCR2 (Rv1543) = FCR2 (Rv1543) (Mycobacterium tuberculosis, UniProt P9WGS1)
Sequence of FCR2 (Rv1543) (P9WGS1 whole entry): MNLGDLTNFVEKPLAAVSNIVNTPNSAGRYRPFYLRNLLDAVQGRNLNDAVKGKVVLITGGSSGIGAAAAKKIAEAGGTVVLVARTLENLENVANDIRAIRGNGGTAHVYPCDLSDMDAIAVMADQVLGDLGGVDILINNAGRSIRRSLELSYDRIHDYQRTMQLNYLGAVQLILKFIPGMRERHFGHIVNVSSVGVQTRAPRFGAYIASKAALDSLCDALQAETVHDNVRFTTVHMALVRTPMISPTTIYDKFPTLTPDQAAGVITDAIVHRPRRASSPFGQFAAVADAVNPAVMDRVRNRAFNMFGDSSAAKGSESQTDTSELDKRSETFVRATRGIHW

T1 sequence (O50417 entry or part of it): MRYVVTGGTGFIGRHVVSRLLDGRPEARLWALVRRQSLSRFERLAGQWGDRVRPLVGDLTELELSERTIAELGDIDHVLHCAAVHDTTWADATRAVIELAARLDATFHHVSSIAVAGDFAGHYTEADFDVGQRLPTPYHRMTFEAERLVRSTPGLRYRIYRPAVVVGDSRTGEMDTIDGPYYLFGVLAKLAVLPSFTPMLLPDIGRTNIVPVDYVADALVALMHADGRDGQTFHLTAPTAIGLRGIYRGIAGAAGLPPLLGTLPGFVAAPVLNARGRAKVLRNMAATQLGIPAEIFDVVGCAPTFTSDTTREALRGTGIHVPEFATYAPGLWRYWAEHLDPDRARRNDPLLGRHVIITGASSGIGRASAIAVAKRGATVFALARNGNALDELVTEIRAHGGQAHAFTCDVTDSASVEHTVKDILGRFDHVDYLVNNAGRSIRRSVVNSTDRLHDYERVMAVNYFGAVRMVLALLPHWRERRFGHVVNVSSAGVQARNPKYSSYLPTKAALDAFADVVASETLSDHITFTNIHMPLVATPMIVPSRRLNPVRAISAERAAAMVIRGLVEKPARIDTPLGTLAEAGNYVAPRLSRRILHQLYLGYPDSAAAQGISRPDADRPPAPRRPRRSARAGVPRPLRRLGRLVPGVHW

| SMILES | 14C product formation, TLC and scintillation counting, E. coli lysate (FCR1 (Rv3391)) | 14C product formation, TLC and scintillation counting, E. coli lysate (FCR2 (Rv1543)) |
| --- | --- | --- |
| NC(=O)C1=CN([C@@H]2O[C@H](COP(=O)(O)OP(=O)(O)OC[C@H]3O[C@@H](n4cnc5c(N)ncnc54)[C@H](OP(=O)(O)O)[C@@H]3O)[C@@H](O)[C@H]2O)C=CC1 [NADPH] | Both FCR1 and FCR2 exhibited strong preference for NADPH as a cofactor | Both FCR1 and FCR2 exhibited strong preference for NADPH as a cofactor |
| CCCCCCCC/C=C\CCCCCCCC(=O)SCCNC(=O)CCNC(=O)[C@H](O)C(C)(C)COP(=O)(O)OP(=O)(O)OC[C@H]1O[C@@H](n2cnc3c(N)ncnc32)[C@H](O)[C@@H]1OP(=O)(O)O [oleoyl-CoA] | Both of these proteins showed typical substrate saturation with oleoyl-CoA (Fig. 3C, G). | Both of these proteins showed typical substrate saturation with oleoyl-CoA (Fig. 3C, G). |
